This is an account of results in patent US20030125311A1, “Compounds capable of binding with the cytoskeleton” (priority 2002, published 2003).

Structures can show the parent of a compound that is named as a salt.

For one assay, the system named is Cytosol (Rat). As to the kind of experiment: Index of competition with pregnenolone, cytosol (rat). It is filed as binding. Conditions: Pregnenolone = 100%. As to the method: (§1) In trials of competition between pregnenolone and different steroids for the binding studied, 0.2 ml of cytosol is incubated with 100 nM of PREG [^3H] and a 1-, 10-, 100-, and 1,000-fold excess of non-radioactive steroid.

A further assay has as its system MT (Beef). In words: Index of competition with pregnenolone, MT (beef). It is filed as binding. Conditions: Pregnenolone = 100%. On the procedure:
as §1

The next assay has as its system Cytosol (piglet). As to the kind of experiment: Index of competition with pregnenolone, cytosol (piglet). Particulars: Pregnenolone = 100%; cell marked piglet. It is filed as binding. On the procedure:
as §1

Assay [1] relates to rat brain cytosol binding sites of pregnenolone. In words: Competition trials for PREG [3H] binding in brain cytosol. The arrangement: key to R.C.R. 50 (relative competition index): IC50(PREG)/IC50(competitor) ×100; PREG = 100. Conditions: for R.C.R. 50 (relative competition index): PREG = 100, 50% reduction of specific binding of 100 nM PREG [3H], mean±standard error, n=3. As to the method: as §1
To study the specificity of the binding of PREG [^3H], different steroids were used.
(§2) The relative competition index was determined as ratios of the concentrations of the competitor (in the […]) versus PREG causing a reduction of 50% of the specific binding of PREG [^3H]×100 (mean±standard error, n=3).

The target in a further assay is MAP2-tubulin copolymers (Bos taurus, UniProt A0A3Q1NAK9). As to the kind of experiment: Competition for PREG [3H] binding to MAP2-tubulin copolymers (RCR). The arrangement: species or system calf. Conditions: for RCR: MAP2-tubulin copolymers, PREG = 100. On the procedure:
as §1, §2
Purified calf brain tubulin (90 μg/ml), MAP2 (45 μg/ml) or tau protein (25 μg/ml) is incubated with 100 nM of PREG [^3H], with or without a 1,000-fold excess of non-radioactive PREG.

Assay [2] deals with T1, microtubules reconstituted with purified tubulin and MAP2 (Bos taurus, UniProt A0A3Q1NAK9).
T1 construct: from tissue; host or cells: calf brain
In words: Kinetics of assembling of microtubules (turbidity at 345 nm). It is filed as biochemical, calf. Particulars: for effect on assembling of microtubules (absorbance at 345 nm): 500 nM steroid, 37° C., 15 min. As to the method:
This assembling is measured by monitoring the increases of turbidity with a UVICON® spectrophotometer (Kontron Instruments, Montigny-le-Bretonneux, France)
The microtubules are reconstituted in vitro with purified tubulin (1 mg/ml) and MAP2 (0.05 mg/ml) in buffer A.
The increase of absorbance is measured at 345 nm, at 37° C. and recorded every 30 sec. for 15 min.
The assembling of microtubules is measured either in the absence of steroids (-⋄-); or in the presence of 500 nM of steroid: PREG (- -), progesterone (-X-), estradiol (-V-); or in the presence, at the same time, of PREG and progesterone (-∘-) or of PREG and estradiol (-Δ-) each at a concentration of 500 nM.

In a further assay the target is T2, MAP-2c + Tubuline (Homo sapiens, UniProt P11137).
T2 sequence (P11137 1-471 isoform P11137-2): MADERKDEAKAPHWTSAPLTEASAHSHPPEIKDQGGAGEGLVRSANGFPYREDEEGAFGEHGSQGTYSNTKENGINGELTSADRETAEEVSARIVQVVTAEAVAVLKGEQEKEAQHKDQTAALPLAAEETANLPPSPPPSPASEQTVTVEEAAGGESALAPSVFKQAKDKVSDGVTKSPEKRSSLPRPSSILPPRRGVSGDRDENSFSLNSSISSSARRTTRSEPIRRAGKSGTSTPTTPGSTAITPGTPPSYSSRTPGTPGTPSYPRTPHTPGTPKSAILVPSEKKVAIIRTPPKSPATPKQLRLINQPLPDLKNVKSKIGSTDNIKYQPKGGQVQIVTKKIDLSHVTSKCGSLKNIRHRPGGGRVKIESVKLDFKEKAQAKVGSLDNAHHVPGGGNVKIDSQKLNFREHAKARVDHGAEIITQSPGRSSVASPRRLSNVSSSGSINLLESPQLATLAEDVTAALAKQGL
In words: Index of competition with pregnenolone, MAP-2c + tubulin. It is filed as binding. Conditions: Pregnenolone = 100%. On the procedure:
as §1

In the next assay the target is fetal microtubules (Rattus norvegicus, UniProt P15146). As to the kind of experiment: Competition for PREG [3H] binding to fetal microtubules (RCR). Particulars: PREG = 100. On the procedure: as §1
The microtubules are prepared starting from calf brain or adult or fetal rat brain according to an assembly/disassembly method, as a function of the temperature, in vitro (12).
as §2
The binding of PREG [^3H] to microtubules prepared by polymerization/depolymerization cycles was determined.

For assay [3], the system named is binding sites of PREG [3H] in brain cytosol. As to the kind of experiment: Effects of hydrolytic enzymes on the binding of PREG [3H] in cytosol. On the set-up: species or system rat. As to the method: Proteinase K (Merck, Darmstadt, Germany) and Pronase® are dissolved at 1 mg/ml in TNM buffer containing 10 mM of Tris, 0.1M of NaCl, 3 mM of MgCl2 (pH 7.4). Deoxyribonuclease I and ribonuclease A are products of Sigma-Aldrich and are respectively adjusted to 100 IU/ml and 5 IU/ml. Phospholipase A2 (Roche Molecular Biochemicals) is diluted to 20 IU/ml in TNM.
1 ml of brain cytosol is incubated with 0.2 ml of an enzyme solution at 37° C. for 30 min. The binding activity is studied of samples (0.2 ml) which had undergone the enzyme treatment or control samples diluted with buffer only.
To study the effects of hydrolytic enzymes on the binding of PREG [^3H], samples of 1 ml of cytosol incubated with 0.2 ml of an enzyme solution at 37° C. for 30 min were used. The results obtained, expressed as % of the control incubation (cytosol diluted in a buffer) are reported in Table 1 (mean±standard error, n=3).

fetal microtubules, sequence (P15146 whole entry): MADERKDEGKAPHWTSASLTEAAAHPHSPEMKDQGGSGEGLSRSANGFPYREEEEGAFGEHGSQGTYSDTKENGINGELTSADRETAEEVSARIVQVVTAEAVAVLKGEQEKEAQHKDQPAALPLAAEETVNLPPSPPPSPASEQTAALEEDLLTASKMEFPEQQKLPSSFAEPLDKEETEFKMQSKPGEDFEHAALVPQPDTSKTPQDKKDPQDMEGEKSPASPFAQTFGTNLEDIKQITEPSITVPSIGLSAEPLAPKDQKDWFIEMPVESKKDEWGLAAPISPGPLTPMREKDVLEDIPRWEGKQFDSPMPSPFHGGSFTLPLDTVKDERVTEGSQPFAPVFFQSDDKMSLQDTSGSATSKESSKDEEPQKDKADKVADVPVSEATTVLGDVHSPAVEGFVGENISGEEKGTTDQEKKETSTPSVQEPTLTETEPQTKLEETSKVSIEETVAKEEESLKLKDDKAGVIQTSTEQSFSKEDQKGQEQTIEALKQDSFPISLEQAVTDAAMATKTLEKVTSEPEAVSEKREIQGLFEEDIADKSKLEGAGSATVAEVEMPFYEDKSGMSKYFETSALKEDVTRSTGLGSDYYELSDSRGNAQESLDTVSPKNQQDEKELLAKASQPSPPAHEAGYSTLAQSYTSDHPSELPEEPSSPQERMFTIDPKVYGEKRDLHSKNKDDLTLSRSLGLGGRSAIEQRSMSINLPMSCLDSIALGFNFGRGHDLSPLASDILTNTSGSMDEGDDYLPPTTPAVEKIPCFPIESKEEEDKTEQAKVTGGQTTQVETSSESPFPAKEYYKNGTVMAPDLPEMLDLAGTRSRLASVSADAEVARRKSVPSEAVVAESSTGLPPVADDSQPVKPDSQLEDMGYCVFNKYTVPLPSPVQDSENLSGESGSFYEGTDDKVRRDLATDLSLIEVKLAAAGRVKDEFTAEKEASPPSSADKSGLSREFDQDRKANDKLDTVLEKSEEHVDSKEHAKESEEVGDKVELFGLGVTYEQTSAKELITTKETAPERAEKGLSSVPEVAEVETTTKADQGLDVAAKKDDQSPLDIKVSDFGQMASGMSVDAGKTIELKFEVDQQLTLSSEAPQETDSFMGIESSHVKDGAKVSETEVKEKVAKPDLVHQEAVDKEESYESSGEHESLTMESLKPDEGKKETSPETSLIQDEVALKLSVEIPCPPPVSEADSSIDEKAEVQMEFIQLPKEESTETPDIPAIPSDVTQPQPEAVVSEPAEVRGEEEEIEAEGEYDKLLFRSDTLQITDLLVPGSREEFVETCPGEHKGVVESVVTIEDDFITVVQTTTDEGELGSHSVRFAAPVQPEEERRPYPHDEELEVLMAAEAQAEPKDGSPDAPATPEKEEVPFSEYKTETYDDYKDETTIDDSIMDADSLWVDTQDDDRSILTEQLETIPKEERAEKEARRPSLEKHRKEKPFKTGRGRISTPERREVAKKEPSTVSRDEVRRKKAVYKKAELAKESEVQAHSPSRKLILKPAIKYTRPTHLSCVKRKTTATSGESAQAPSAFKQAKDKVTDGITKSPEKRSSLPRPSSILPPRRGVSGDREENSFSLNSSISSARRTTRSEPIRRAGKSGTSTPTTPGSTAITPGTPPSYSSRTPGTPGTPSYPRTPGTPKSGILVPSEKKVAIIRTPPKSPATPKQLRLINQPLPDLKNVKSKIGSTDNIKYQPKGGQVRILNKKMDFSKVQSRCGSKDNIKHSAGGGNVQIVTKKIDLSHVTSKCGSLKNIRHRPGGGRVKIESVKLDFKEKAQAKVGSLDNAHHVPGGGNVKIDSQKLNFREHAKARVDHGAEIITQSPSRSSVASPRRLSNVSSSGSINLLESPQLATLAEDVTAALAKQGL
MAP2-tubulin copolymers, sequence (A0A3Q1NAK9 1-1867): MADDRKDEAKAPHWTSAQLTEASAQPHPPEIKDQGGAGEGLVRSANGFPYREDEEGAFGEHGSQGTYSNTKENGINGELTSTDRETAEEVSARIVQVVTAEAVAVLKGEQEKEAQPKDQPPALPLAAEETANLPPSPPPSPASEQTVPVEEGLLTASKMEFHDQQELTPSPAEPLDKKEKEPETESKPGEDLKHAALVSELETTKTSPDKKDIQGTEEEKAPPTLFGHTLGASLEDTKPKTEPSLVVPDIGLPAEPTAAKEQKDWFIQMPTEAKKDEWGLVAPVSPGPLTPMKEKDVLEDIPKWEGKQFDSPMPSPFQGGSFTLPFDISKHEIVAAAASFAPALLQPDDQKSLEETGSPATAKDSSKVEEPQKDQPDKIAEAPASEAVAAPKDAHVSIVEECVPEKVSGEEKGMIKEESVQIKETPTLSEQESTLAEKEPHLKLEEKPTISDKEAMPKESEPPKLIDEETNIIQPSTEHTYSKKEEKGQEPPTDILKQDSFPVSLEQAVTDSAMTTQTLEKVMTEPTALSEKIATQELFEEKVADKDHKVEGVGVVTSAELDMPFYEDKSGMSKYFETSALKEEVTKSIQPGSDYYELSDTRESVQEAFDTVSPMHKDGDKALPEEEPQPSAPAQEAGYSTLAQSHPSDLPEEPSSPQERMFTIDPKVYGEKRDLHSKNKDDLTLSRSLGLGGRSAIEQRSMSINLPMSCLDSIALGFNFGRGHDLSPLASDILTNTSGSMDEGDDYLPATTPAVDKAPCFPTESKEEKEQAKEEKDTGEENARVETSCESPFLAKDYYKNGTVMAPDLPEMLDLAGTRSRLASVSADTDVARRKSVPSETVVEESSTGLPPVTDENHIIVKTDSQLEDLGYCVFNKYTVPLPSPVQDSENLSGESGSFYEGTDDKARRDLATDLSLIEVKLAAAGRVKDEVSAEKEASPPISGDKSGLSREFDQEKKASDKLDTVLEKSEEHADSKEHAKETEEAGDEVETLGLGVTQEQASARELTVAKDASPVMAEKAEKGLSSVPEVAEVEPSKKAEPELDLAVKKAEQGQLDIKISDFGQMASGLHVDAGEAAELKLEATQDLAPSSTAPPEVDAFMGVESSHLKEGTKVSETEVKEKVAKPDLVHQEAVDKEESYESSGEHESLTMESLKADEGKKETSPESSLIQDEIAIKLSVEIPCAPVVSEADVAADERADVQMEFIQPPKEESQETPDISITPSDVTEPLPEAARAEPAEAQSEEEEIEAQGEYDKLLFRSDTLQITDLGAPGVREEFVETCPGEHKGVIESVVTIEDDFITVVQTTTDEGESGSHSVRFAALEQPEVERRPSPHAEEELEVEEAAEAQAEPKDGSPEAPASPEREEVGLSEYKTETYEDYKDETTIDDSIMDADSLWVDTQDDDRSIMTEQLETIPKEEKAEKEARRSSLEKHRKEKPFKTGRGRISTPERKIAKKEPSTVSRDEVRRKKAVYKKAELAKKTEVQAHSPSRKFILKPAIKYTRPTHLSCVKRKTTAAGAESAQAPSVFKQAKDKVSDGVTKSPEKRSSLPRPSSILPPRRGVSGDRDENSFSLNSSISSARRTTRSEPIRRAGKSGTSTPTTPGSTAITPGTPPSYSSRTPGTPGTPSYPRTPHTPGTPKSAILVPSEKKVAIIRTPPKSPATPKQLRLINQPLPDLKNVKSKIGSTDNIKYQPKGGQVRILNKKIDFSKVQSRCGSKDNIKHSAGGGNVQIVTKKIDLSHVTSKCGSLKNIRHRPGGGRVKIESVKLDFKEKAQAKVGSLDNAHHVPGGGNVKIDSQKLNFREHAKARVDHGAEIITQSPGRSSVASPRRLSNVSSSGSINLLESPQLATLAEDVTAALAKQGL
T1 sequence (A0A3Q1NAK9 1-1867): as above

With `CC(=O)C1CC=C2C3CC=C4CC(O)CCC4(C)C3CCC21C` (stereo not drawn) [3β-OH-5, 14 Preqnadiene-20-one], the “Index of Competition, Cytosol (Rat)” value in the assay with Cytosol (Rat) came to 102%. For the same compound, in the assay on MT (Beef), the “Index of Competition, MT (Beef)” value was found to be 95%.
Turning to `CC(=O)OCC(=O)[C@H]1CC[C@H]2[C@@H]3CC=C4C[C@@H](O)CC[C@]4(C)[C@H]3CC[C@]12C` [3β-OH-Pregna-5-ene-20-one-21-acetoxy], the “Index of Competition, Cytosol (piglet)” value in the assay with Cytosol (piglet) was 80 (piglet) %. Further, in the assay on MT (Beef), the “Index of Competition, MT (Beef)” value was found to be 107%.
For `CC(=O)[C@H]1CC[C@H]2[C@@H]3CC[C@H]4C[C@@H](O)CC[C@]4(C)[C@H]3CC[C@]12C` [3β-hydroxy-5α-pregnane 20-one, 3β-hydroxy-5α-pregnane-20-one], in assay [1], the “competition for the binding of PREG [3H] (in words)” value (“competition for the binding of PREG” below) is recorded as “effective competitor”, the “times less active than PREG as competitor” value was determined as 5 times and the “R.C.R. 50 (relative competition index)” value worked out at 18.4 ± 4.0.
Take `C[C@H](O)C1CCC2C3CCC4CC(O)CCC4(C)C3CCC21C` (stereo partly drawn) [5a-Pregnama 3β, 20a-diol]: in the assay on Cytosol (Rat), the “Index of Competition, Cytosol (Rat)” value is 100%. The “Index of Competition, MT (Beef)” value in the assay on MT (Beef) is on record as 96%.
As to `CC(=O)[C@@]1(O)CC[C@H]2[C@@H]3CC=C4C[C@@H](O)CC[C@]4(C)[C@H]3CC[C@@]21C` [17α-hydroxy-pregnenolone], the “R.C.R. 50 (relative competition index)” value in [1] stood at 0.85.
On the same count and under the same terms, under `CC(=O)[C@@]1(O)CC[C@H]2[C@@H]3CCC4=CC(=O)CC[C@]4(C)[C@H]3CC[C@@]21C` [17α-hydroxy-progesterone] stands 0.79; under `CC(C)CCC[C@@H](C)[C@H]1CC[C@H]2[C@@H]3CC=C4C[C@@H](O)CC[C@]4(C)[C@H]3CC[C@]12C` [Cholesterol], 0.02.
As to `C[C@]12CC[C@H](O)CC1=CC[C@@H]1[C@@H]2CC[C@]2(C)C(=O)CC[C@@H]12` [Dehydroepiandrosterone], on MAP2-tubulin copolymers, the RCR stood at 2.3.
As for `C[C@]12CC[C@@H]3c4ccc(O)cc4CC[C@H]3[C@@H]1CC[C@@H]2O` [Estradiol], the “effect on assembling of microtubules (absorbance at 345 nm)” value (from here on “effect on assembling of microtubules”) in [2] is “inactive”.
Take `CC(=O)C1CCC2C3CC=C4CC(OS(=O)(=O)c5ccc(C)cc5)CCC4(C)C3CCC12C` (stereo not drawn) [PREG Tosylate]: on MAP-2c + Tubuline, the “Index of Competition, MAP-2c + Tubuline” value is on record as 129%. Moreover, the “Index of Competition, Cytosol (Rat)” value with Cytosol (Rat) came to 107%. Further, in the assay with MT (Beef), the “Index of Competition, MT (Beef)” value turned out to be 121%.
As to `CC(=O)C1[C@H](C)CC2C3CC=C4CC(O)CCC4(C)C3CCC21C` (stereo partly drawn) [PREG-16a-methyl], in the assay on Cytosol (Rat), the “Index of Competition, Cytosol (Rat)” value is 80%. The “Index of Competition, MT (Beef)” value in the assay with MT (Beef) was determined as 88%.
As to `[2H]OC1CCC2(C)C(=CCC3C2CCC2(C)C3CC(C)C2C(C)=O)C1` (stereo not drawn) [PREG-16β-methyl], the “Index of Competition, MAP-2c + Tubuline” value at MAP-2c + Tubuline is reported as 97%. Also, the “Index of Competition, Cytosol (Rat)” value in the assay on Cytosol (Rat) is listed as 63%. For the same compound, the “Index of Competition, MT (Beef)” value in the assay on MT (Beef) is recorded as 83 (beef) %.
As to `CC(=O)C1CCC2C3CC=C4CC(OS(=O)(=O)O)CCC4(C)C3CCC12C` (stereo not drawn) [Preqnenolone sulfate, pregnenolone sulfate], the “effect on assembling of microtubules” value in [2] is “effects similar to those of progesterone”. Besides, the “competition for the binding of PREG” value in assay [1] was “best competitors”. In addition, the “R.C.R. 50 (relative competition index)” value in assay [1] is on record as 78.8 ± 7.0. Also, the RCR on MAP2-tubulin copolymers is listed as 91.5; on fetal microtubules, 78.8.
Regarding `CC(=O)[C@H]1CC[C@H]2[C@@H]3CCC4=CC(=O)CC[C@]4(C)[C@H]3CC[C@]12C` [Progesterone], the “effect on assembling of microtubules” value in [2] is recorded as “without effect”. For the same compound, in [2] (with PREG, each at 500 nM), the “effect on PREG-stimulated assembly of microtubules” value is given as “counteracts the stimulative effect of PREG on the assembly of microtubules”. Moreover, in [1], the “competition for the binding of PREG” value is “best competitors” and the “R.C.R. 50 (relative competition index)” value worked out at 72.1 ± 17.7. Further, on MAP2-tubulin copolymers, the “binding to MAP2 (in words)” value is “affinity for MAP2 of the same order as that of PREG” and the RCR was found to be 81.3. The compound also registered an RCR on fetal microtubules of 72.1.
For the compound `C[C@]12CC[C@H]3[C@@H](CCC4=CC(=O)CC[C@@]43C)[C@@H]1CC[C@@H]2O` [Testosterone, reference compound], the values for the RCR on MAP2-tubulin copolymers and at fetal microtubules were 2.3 and 5.6, respectively.
Consider `[2H]OC1CCC2(C)C(=CCC3C2CCC2(C)C3CCC2[C@H](C)O)C1` (stereo partly drawn) [Δ5-pregnene-3β.20α-diol, Δ5-pregnene-3β, 20α-diol], for which the “Index of Competition, Cytosol (Rat)” value with Cytosol (Rat) was found to be 87%. Also, in assay [1], the “competition for the binding of PREG” value is “best competitors” and the “R.C.R. 50 (relative competition index)” value amounted to 68.4 ± 15.3. Also, the “Index of Competition, MT (Beef)” value in the assay on MT (Beef) is listed as 100 (beef) %.
For Phospholipase A2 [reference compound], the “% of Control (binding of PREG [3H])” value in [3] (cytosol incubated with enzyme at 37° C. for 30 min, mean±standard error, n=3) was found to be 85.0 ± 7.3%. Besides, the “effect on binding sites of PREG [3H] (in words)” value in assay [3] (enzyme treatment of cytosol) is listed as “no significant effect”.
